Paper PMC4268798, “Acetylcholinesterase of the sand fly, Phlebotomus papatasi (Scopoli): construction, expression and biochemical properties of the G119S orthologous mutant” (Parasites & Vectors, 2014)

Legend:
[1] = target: T1, rPpAChE1 (Phlebotomus papatasi, UniProt M1F887); test: biochemical
T1 construct: gene AChE; cell lysate assayed

[2] = tested on: CC(=O)SCC[N+](C)(C)C; test: modified Ellman assay; type: biochemical, Phlebotomus papatasi

Molecule	IC50 [1]	Km [2]
CCC(C)n1cc(OC(=O)NC)cn1 (stereo not drawn) [compound 3, 1-(sec-butyl)-1H-pyrazol-4-yl methylcarbamate]	13 nM	–
rPpAChE1 (Phlebotomus papatasi)	–	24 µM
CNC(=O)Oc1cnn(CC(C)C)c1 [compound 5, 1-isobutyl-1H-pyrazol-4-yl methylcarbamate]	76 nM	–
CNC(=O)Oc1ccccc1OC(C)C [Propoxur]	220 nM	–
COc1cc2c3cc1Oc1cc(ccc1O)C[C@@H]1c4c(cc(OC)c(O)c4Oc4ccc(cc4)C[C@@H]3N(C)CC2)CC[N+]1(C)C [Tubocurarine]	143000 nM	–
CNC(=O)Oc1cnn(CCC(C)C)c1 [compound 4, 1-isopentyl-1H-pyrazole-4-yl methylcarbamate]	75 nM	–
CNC(=O)Oc1cccc(C(C)(C)C)c1 [compound 2, 3-(tert-butyl)phenyl methylcarbamate]	36 nM	–
CC[n+]1c(-c2ccccc2)c2cc(N)ccc2c2ccc(N)cc21 [Ethidium Bromide]	17100 nM	–
Nc1c2c(nc3ccccc13)CCCC2 [Tacrine]	67 nM	–
CNC(=O)Oc1ccc2c(c1)[C@]1(C)CCN(C)[C@@H]1N2C [Eserine]	3.2 nM	–
CNC(=O)Oc1cccc2c1OC(C)(C)C2 [Carbofuran]	24 nM	–
CCOC(=O)CC(SP(=O)(OC)OC)C(=O)OCC (stereo not drawn) [Malaoxon]	4.36 nM	–
